Tests used:
[1] = wn = mass fraction of the nth substance listed; details: 101 kPa, Liquid, Vibrating tube method
[2] = xn = mol fraction of the nth substance listed; details: 101 kPa, Liquid, Vibrating tube method

CCCC[N+](CCCC)(CCCC)CCCC.[Br-] [tetrabutylammonium bromide] + O
mass density [kg/m3], [1]
Details	w1 = 0.0697	w1 = 0.0999	w1 = 0.15	w1 = 0.1996	w1 = 0.25	w1 = 0.2998	w1 = 0.3499	w1 = 0.4002	w1 = 0.4498	w1 = 0.5
293.15 K	1003.85	1006.63	1011.35	1017.09	1021.73	–	1030.98	1036.25	1041.41	1044.73
298.15 K	1002.43	1005.08	1009.55	1015.11	1019.26	1027.44	1027.91	1032.9	1037.83	1041.06
303.15 K	1000.8	1003.31	1007.54	1012.76	1016.66	1024.31	1024.77	1029.49	1034.23	1037.36
308.15 K	998.95	1001.34	1005.34	1010.24	1013.92	1021.1	1021.55	1026.04	1030.59	1033.62
313.15 K	996.91	999.19	1002.97	1007.59	1011.06	1017.82	1018.26	1022.53	1026.92	1029.85
318.15 K	994.7	996.86	1000.45	1004.8	1008.08	1014.47	1014.9	1018.98	1023.21	1026.05
323.15 K	992.32	994.38	997.78	1001.88	1005	1011.05	1011.47	1015.38	1019.46	1022.22
328.15 K	989.78	991.74	994.96	998.84	1001.81	1007.56	1007.97	1011.71	1015.67	1018.35
333.15 K	987.09	988.96	992	995.69	998.5	1004	1004.4	1008	1011.83	1014.45

C1CCOC1 [tetrahydrofuran] + O
mass density [kg/m3], [2]
Details	293.15 K	298.15 K	303.15 K	308.15 K	313.15 K	318.15 K	323.15 K	328.15 K	333.15 K
x2 = 0	889.47	885.04	880.76	876.63	872.62	868.72	864.91	861.19	855.57
x2 = 0.307	909.02	904.73	900.6	896.6	892.72	888.93	885.23	881.59	878.02
x2 = 0.5048	927.43	923.37	919.45	915.67	912.03	908.48	905.02	901.65	898.3
x2 = 0.6429	944.68	940.84	937.15	933.61	930.19	926.87	923.65	920.5	917.43
x2 = 0.8027	968.99	965.85	962.77	959.82	956.98	954.25	951.59	949.01	946.48
x2 = 0.8555	979.39	976.67	974.08	971.62	969.26	966.98	964.79	962.66	960.59
x2 = 0.9025	987.96	986.24	984.38	982.6	980.91	979.36	977.79	976.28	974.8
x2 = 0.9402	992.74	991.5	990.32	989.18	988.11	987.04	986	985.02	983.98
x2 = 0.9719	995.94	995.45	994.98	994.52	994.07	993.63	993.19	992.76	992.33

Source: the NIST ThermoML archive (doi:10.1016/j.jct.2009.06.014)
